This note sets out measurements from patent publication US20210363213A1, “GLUCAGON-GLP-1-GIP TRIPLE AGONIST COMPOUNDS” (priority 2013, published 2021).

Read-outs that look alike come from different tables or passages of the source. Numbered stars: 1 amine (or outer) side, 2 acyl side, 3 side chain; on linkers, the order of the positions; unused ones are H or OH. Square brackets hold non-standard residues; d marks the D form. Side chains are listed from the residue outwards. Peptide text beside a SMILES is read from it. * marks the point of attachment. γGlu = O=C(O)[C@H](CCC(=O)[*:2])N[*:1]; Stearoyl = CCCCCCCCCCCCCCCCCC(=O)*; AEEA = NCCOCCOCC(=O)O; Aib = CC(C)(N)C(=O)O

In test [1] the target is T1, human GLP-1 R (Homo sapiens, UniProt P43220).
T1 construct: expressed in transfected cells
Kind of test: Human GLP-1 receptor (GLP-1-R) activity assay, cAMP induction (AlphaScreen) in HEK293 cells. It counts as cell-based. The conditions noted are these: average EC50, cAMP in HEK293 cells expressing human GLP-1 R, read-out: GLP1 R (EC50 in nM). A general note: Alpha assays give light when donor and acceptor beads are brought close together.
Procedure: (§1) Briefly, HEK293 cells expressing the human GIP R, GLP-1 R or GCG R (stable cell lines generated through transfection of the cDNA for human GIP R, GLP-1 R or GCG R and selection of stable clones) were seeded at 30,000 cells/well in 96-well microtiter plates coated with 0.01% poly-L-lysine, and grown for 1 day in culture in 200 μl growth medium (DMEM, 10% FCS, Penicillin (100 IU/ml), Streptomycin (100 μg/ml)). On the day of analysis, growth medium was removed and the cells were washed once with 150 μl Tyrode's buffer (Tyrode's Salts (9.6 g/I), 10 mM HEPES, pH 7.4). […] The Assay buffer was removed and cells are lysed in 80 μl Lysis buffer (0.1% w/v BSA, 5 mM HEPES, 0.3% v/v Tween-20) per well. From each well 10 μl of lysed cells were transferred to a 384-well plate and mixed with 15 μl bead-mix (1 Unit/15 μl anti-cAMP Acceptor Beads, 1 Unit/15 μl Donor Beads, and 1 Unit/15 μl Biotinylated cAMP in Assay Buffer). The plates were mixed and incubated in the dark for an hour at room temperature before measuring using an Envision™ plate reader (Perkin-Elmer).
(§2) The resulting cAMP curves were plotted as absolute cAMP concentrations (nM) over log (test compound concentration) and analyzed using the curve fitting program XLfit.
(§3) Parameters calculated to describe both the potency as well as the agonistic activity of each test compound on the receptors were:
(§4) EC50, a concentration resulting in a half-maximal elevation of cAMP levels, reflecting the potency of the test compound.

Test [2] has as its target T2, human GIP R (Homo sapiens, UniProt P48546).
T2 construct: expressed in transfected cells
T2 sequence (P48546 22-466): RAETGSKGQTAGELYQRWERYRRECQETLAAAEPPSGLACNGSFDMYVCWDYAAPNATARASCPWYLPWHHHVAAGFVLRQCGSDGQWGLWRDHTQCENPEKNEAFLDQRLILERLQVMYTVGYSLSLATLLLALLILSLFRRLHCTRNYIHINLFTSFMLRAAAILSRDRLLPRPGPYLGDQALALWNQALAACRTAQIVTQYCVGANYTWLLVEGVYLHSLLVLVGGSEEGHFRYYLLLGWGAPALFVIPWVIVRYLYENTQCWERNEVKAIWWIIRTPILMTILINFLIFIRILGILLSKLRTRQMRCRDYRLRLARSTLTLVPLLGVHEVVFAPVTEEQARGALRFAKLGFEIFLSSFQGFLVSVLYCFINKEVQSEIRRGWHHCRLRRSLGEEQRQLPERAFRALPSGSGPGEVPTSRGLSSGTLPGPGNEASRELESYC
Kind of test: Human GIP receptor (GIP-R) activity assay, cAMP induction (AlphaScreen) in HEK293 cells. Format: cell-based. The conditions noted are these: average EC50, cAMP in HEK293 cells expressing human GIP R, read-out: GIP R (EC50 in nM).
Procedure: as §1, §2, §3, §4

Test [3] addresses human GCG R (Homo sapiens, UniProt P47871). The conditions noted are these: read-out: GCG R (EC50 in nM); Table 2; average EC50; cAMP in HEK293 cells expressing human GCG R.
Procedure: as §1, §2
Parameters calculated to describe both the potency as well as the agonistic activity of each test compound on the receptors were: […]
Setting [4] is: Table 2b (most comprehensive data).

T1 sequence (P43220 24-463): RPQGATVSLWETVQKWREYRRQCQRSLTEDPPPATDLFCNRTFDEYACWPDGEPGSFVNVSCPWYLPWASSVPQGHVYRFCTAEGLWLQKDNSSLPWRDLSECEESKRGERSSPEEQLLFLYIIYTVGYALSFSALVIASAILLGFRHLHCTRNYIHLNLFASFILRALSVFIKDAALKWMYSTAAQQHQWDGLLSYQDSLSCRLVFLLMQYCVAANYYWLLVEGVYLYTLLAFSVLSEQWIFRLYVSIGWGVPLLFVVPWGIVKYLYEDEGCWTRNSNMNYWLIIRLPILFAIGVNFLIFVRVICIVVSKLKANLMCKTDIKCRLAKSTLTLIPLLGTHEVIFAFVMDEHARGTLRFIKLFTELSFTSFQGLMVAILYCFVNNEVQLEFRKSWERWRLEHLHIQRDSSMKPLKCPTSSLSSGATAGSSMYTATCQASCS
Sequence of human GCG R (P47871 26-477): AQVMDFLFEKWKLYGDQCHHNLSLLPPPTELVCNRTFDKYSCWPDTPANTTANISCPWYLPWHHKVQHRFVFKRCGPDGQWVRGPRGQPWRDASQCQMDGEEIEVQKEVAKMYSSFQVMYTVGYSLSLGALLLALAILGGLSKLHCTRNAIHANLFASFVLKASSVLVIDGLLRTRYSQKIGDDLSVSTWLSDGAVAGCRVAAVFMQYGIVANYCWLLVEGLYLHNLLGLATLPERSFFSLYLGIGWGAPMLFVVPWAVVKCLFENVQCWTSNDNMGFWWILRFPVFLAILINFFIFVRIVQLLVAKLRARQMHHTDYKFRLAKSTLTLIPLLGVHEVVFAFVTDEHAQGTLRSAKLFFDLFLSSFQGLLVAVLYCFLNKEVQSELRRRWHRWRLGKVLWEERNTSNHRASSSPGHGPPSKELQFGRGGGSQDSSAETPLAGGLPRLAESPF

As a reminder, the EC50 is the concentration giving half of the maximal effect. Consider `CC[C@H](C)[C@H](NC(=O)[C@H](CO)NC(=O)[C@H](Cc1ccc(O)cc1)NC(=O)[C@H](CC(=O)O)NC(=O)[C@H](CO)NC(=O)[C@@H](NC(=O)[C@H](Cc1ccccc1)NC(=O)[C@@H](NC(=O)CNC(=O)[C@H](CCC(N)=O)NC(=O)C(C)(C)NC(=O)[C@@H](N)Cc1ccc(O)cc1)[C@@H](C)O)[C@@H](C)O)C(=O)N[C@@H](Cc1ccc(O)cc1)C(=O)N[C@@H](CC(C)C)C(=O)N[C@@H](CCC(=O)O)C(=O)N[C@@H](CCCCN)C(=O)N[C@@H](CCCCN)C(=O)N[C@@H](C)C(=O)N[C@@H](C)C(=O)N[C@@H](Cc1c[nH]cn1)C(=O)N[C@@H](CC(=O)O)C(=O)N[C@@H](Cc1ccccc1)C(=O)N[C@H](C(=O)N[C@@H](CCC(=O)O)C(=O)N[C@@H](Cc1c[nH]c2ccccc12)C(=O)N[C@@H](CC(C)C)C(=O)N[C@@H](CC(C)C)C(=O)N[C@@H](CO)C(=O)N[C@@H](C)C(N)=O)C(C)C` [Compound 14] (HELM PEPTIDE1{Y.[Aib].Q.G.T.F.T.S.D.Y.S.I.Y.L.E.K.K.A.A.H.D.F.V.E.W.L.L.S.A.[am]}$$$$V2.0), for which the EC50 in test [1] (Table 2) came to 0.013 nM; in test [2] (Table 2), 0.06 nM; in test [3] it was 0.1 nM.
In the case of `CC[C@H](C)[C@H](NC(=O)[C@H](CO)NC(=O)[C@H](Cc1ccc(O)cc1)NC(=O)[C@H](CC(=O)O)NC(=O)[C@H](CO)NC(=O)[C@@H](NC(=O)[C@H](Cc1ccccc1)NC(=O)[C@@H](NC(=O)CNC(=O)[C@H](CCC(N)=O)NC(=O)C(C)(C)NC(=O)[C@@H](N)Cc1ccc(O)cc1)[C@@H](C)O)[C@@H](C)O)C(=O)N[C@@H](Cc1ccc(O)cc1)C(=O)N[C@@H](CC(C)C)C(=O)N[C@@H](CCC(=O)O)C(=O)N[C@@H](CCCCN)C(=O)N[C@@H](CCCCN)C(=O)N[C@@H](C)C(=O)N[C@@H](C)C(=O)N[C@@H](Cc1c[nH]cn1)C(=O)N[C@@H](CC(=O)O)C(=O)N[C@@H](Cc1ccccc1)C(=O)N[C@H](C(=O)N[C@@H](CCC(=O)O)C(=O)N[C@@H](Cc1c[nH]c2ccccc12)C(=O)N[C@@H](CC(C)C)C(=O)N[C@@H](CC(C)C)C(=O)N[C@@H](CO)C(=O)N[C@@H](C)C(N)=O)C(C)C` [Compound 15] (HELM PEPTIDE1{Y.[Aib].Q.G.T.F.T.S.D.Y.S.I.Y.L.E.K.K.A.A.H.D.F.V.E.W.L.L.S.A.[am]}$$$$V2.0), the 50% effective concentration (EC50) was found to be 0.016 nM in test [1] (Table 2), 0.025 nM in test [2] (Table 2) and 0.058 nM in test [3].
With `CCCCCCCCCCCCCCCCCC(=O)N[C@@H](CCC(=O)NCCOCCOCC(=O)NCCOCCOCC(=O)NCCCC[C@H](NC(=O)[C@H](CCCCN)NC(=O)[C@H](CC(=O)O)NC(=O)[C@H](CC(C)C)NC(=O)[C@H](Cc1ccc(O)cc1)NC(=O)[C@@H](NC(=O)[C@H](CO)NC(=O)[C@H](Cc1ccc(O)cc1)NC(=O)[C@H](CC(=O)O)NC(=O)[C@H](CO)NC(=O)[C@@H](NC(=O)[C@H](Cc1ccccc1)NC(=O)[C@@H](NC(=O)CNC(=O)[C@H](CCC(N)=O)NC(=O)C(C)(C)NC(=O)[C@@H](N)Cc1ccc(O)cc1)[C@@H](C)O)[C@@H](C)O)[C@@H](C)CC)C(=O)N[C@@H](C)C(=O)N[C@@H](CCC(N)=O)C(=O)N[C@@H](CCCNC(=N)N)C(=O)N[C@@H](C)C(=O)N[C@@H](Cc1ccccc1)C(=O)N[C@H](C(=O)N[C@@H](CCC(=O)O)C(=O)N[C@@H](Cc1c[nH]c2ccccc12)C(=O)N[C@@H](CC(C)C)C(=O)N[C@@H](CC(C)C)C(=O)N[C@@H](C)C(=O)N[C@@H](CCC(N)=O)C(=O)NCC(=O)N1CCC[C@H]1C(=O)N[C@@H](CO)C(=O)N[C@@H](CO)C(=O)NCC(=O)N[C@@H](C)C(=O)N1CCC[C@H]1C(=O)N1CCC[C@H]1C(=O)N1CCC[C@H]1C(=O)N[C@@H](CO)C(N)=O)C(C)C)C(=O)O` [Compound 35] (H-Y[Aib]QGTFTSDYSIYLDKK([AEEA-AEEA-γGlu-Stearoyl])AQRAFVEWLLAQGPSSGAPPPS-NH2), the concentration giving a half-maximal response (EC50) in test [1] (setting [4]) came to 0.012 nM; in test [2] (setting [4]) it was 0.01 nM.
